Laboratory results from patent US20040097573A1, “Use of a COX-2 inhibitor and a NK-1 receptor antagonist for treating inflammation” (priority 1998, published 2004).

How the values were obtained:
[1] = system: foot tapping in gerbils induced by central infusion of NK-1 receptor agonists such as GR73632; test: Gerbil foot-tapping (Assay 2); type: in vivo, Mongolian gerbils; settings: i.v.
From the text: ASSAY 2: Gerbil Foot-Tapping
CNS-penetrant NK-1 receptor antagonists for use in the present invention can be identified by their ability to inhibit foot tapping in gerbils induced by central infusion of NK-1 receptor agonists such as GR73632, based on the method of Rupniak & Williams, Eur. J. Pharmacol., 1994, 265, 179.
Male or female Mongolian gerbils (35-70 g) are anaesthetised by inhalation of an isoflurane/oxygen mixture to permit exposure of the jugular vein in order to permit administration of test compounds or vehicle in an injection volume of approximately 5 ml/kg i.v. Alternatively, test compounds may be administered orally or by subcutaneous or intraperitoneal routes. A skin incision is then made in the midline of the scalp to expose the skull. The selective NK-1 receptor agonist (e.g. GR73632 (d Ala[L-Pro^9,Me-Leu^10]-substance P-(7-11)) is infused directly into the cerebral ventricles (e.g. 3 pmol in 5 μl i.c.v., depending on test substance) by vertical insertion of a cuffed 27 gauge needle to a depth of 4.5 mm below bregma. The scalp incision is closed and the animal allowed to recover from anaesthesia in a clear perspex observation box (approximately 25 cm×20 cm×20 cm). The duration and/or intensity of hind foot tapping is then recorded continuously for approximately 5 minutes.

[2] = system: cisplatin-induced emesis in ferrets; test: Ferret emesis (Assay 3); type: in vivo; settings: p.o.
Procedure: ASSAY 3: Ferret Emesis Individually housed male ferrets (1.0-2.5 kg) are dosed orally by gavage with test compound. Ten minutes later they are fed with approximately 100 g of tinned cat food. At 60 minutes following oral dosing, cisplatin (10 mg/kg) is given i.v. via a jugular vein catheter inserted under a brief period of halothane anaesthesia. The catheter is then removed, the jugular vein ligated and the skin incision closed. The ferrets recover rapidly from the anaesthetic and are mobile within 10-20 minutes. The animals are observed continuously during recovery from the anaesthetic and for 4 hours following the cisplatin injection, after which time the animals are killed humanely. The numbers of retches and vomits occurring during the 4 hours after cisplatin administration are recorded by trained observers.

| SMILES | gerbil foot-tapping (5 mins.) ID50 [1] | gerbil foot-tapping (24 hrs.) ID50 [1] | ferret emesis ID90 [2] |
| --- | --- | --- | --- |
| C[C@@H](O[C@H]1OCCN(Cc2nn[nH]c2CN(C)C)[C@H]1c1ccccc1)c1cc(C(F)(F)F)cc(C(F)(F)F)c1 [2-(R)-(1-(R)-(3,5-bis(trifluoromethyl)phenyl)ethoxy)-4-(5-(N,N-dimethylamino)methyl-1,2,3-triazol-4-yl)methyl-3-(S)-phenylmorpholine] | ID50 = 0.12 mg/kg i.v. | ID50 = 0.17 mg/kg i.v. | – |
| C[C@@H](O[C@H]1OCCN(Cc2n[nH]c(=O)[nH]2)[C@H]1c1ccc(F)cc1)c1cc(C(F)(F)F)cc(C(F)(F)F)c1 [2-(R)-(1-(R)-(3,5-bis(trifluoromethyl)phenyl)-ethoxy)-3-(S)-(4-fluorophenyl)-4-(3-(5-oxo-1H,4H-1,2,4-triazolo)methyl)-morpholine] | ID50 = 0.36 mg/kg i.v. | ID50 = 0.33 mg/kg i.v. | ID90 < 3 mg/kg p.o. |
